Assay results published in US11180462B2, “Microbiocidal oxadiazole derivatives” (SYNGENTA PARTICIPATIONS AG, priority 2015, dated 2021).

Experiments:
[1] = test system: Puccinia recondita f. Sp. Tritici; assay: Fungicidal activity against Puccinia recondita f. sp. tritici / wheat / leaf disc curative (brown rust); format: in vivo; conditions: foliar, 24 h, 200 ppm in the applied formulation, wheat leaf segments, curative (applied 1 day after inoculation), compared to untreated control leaf disks, read-out: disease control
In short: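 % disease control vs untreated, scored 6–8 d post-application. Wheat cv. Kanzler segments, spore-inoculated, dark 19° C/75% RH; formulated cpd applied 1 d post-inoc; then 19° C, 75% RH, 12 h L/12 h D.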

[2] = test system: Puccinia recondita f. Sp. Tritici; assay: Fungicidal activity against Puccinia recondita f. sp. tritici / wheat / leaf disc preventative (brown rust); format: in vivo; conditions: foliar, 200 ppm in the applied formulation, wheat leaf segments, preventative, compared to untreated control leaf disks, read-out: disease control
In short: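 Compound application precedes infection: segments of wheat cv. Kanzler, sprayed at 200 ppm, are inoculated with a spore suspension after 1 day. Incubation is at 19° C. with 75% relative humidity and 12 h light/12 h darkness, and control versus untreated leaves is rated 7 to 9 days post-application.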

Phakopsora Pachyrhizi = assay: Fungicidal activity against Phakopsora pachyrhizi / soybean / leaf disc preventative (Asian soybean rust); format: in vivo; conditions: foliar, 200 ppm in the applied formulation, soybean leaf disks, compared to untreated control leaf disks, read-out: disease control
In short: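 Preventative soybean leaf-disc test: discs on water agar sprayed with diluted formulated compound, inoculated one day later with spores on the lower surface. Held 24–36 h dark at 20°C, 75% rh, then 12 h light/day; percent disease control versus untreated discs scored 12–14 days after application.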

[3] = test system: Glomerella lagenarium (Colletotrichum lagenarium); assay: Fungicidal activity against Glomerella lagenarium (Colletotrichum lagenarium) liquid culture / cucumber / preventative (anthracnose); format: cell-based; conditions: Colletotrichum orbiculare; 20 ppm in the applied formulation; liquid culture (PDB), growth inhibition measured photometrically after 3 to 4 days; compared to untreated control; read-out: disease control
In short: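 Photometric read-out of fungal growth after 2–7 days, expressed as percent antifungal activity versus untreated check. Cryo-stored conidia in PDB; compound at 20 ppm; dark, 24 °C, 96% RH.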

CON(Cc1ccc(-c2noc(C(F)(F)F)n2)cc1)C(=O)Cc1ccc(Cl)cc1 [Compound 1.49, 2-(4-chlorophenyl)-N-methoxy-N-[[4-[5-(trifluoromethyl)-1,2,4-oxadiazol-3-yl]phenyl]methyl]-acetamide]
≥ 80%: pest or weed control at 200 ppm [1] | pest or weed control at 200 ppm [2] | pest or weed control at 200 ppm (Phakopsora Pachyrhizi) | inhibition of growth at 20 ppm [3]

CC(C)N(Cc1ccc(-c2noc(C(F)(F)F)n2)cc1)C(=O)CC#N [Compound 1.683, 2-cyano-N-isopropyl-N-[[4-[5-(trifluoromethyl)-1,2,4-oxadiazol-3-yl]phenyl]methyl]-acetamide]
≥ 80%: pest or weed control at 200 ppm [1] | pest or weed control at 200 ppm [2] | pest or weed control at 200 ppm (Phakopsora Pachyrhizi) | inhibition of growth at 20 ppm [3]

CCC(C)N(Cc1ccc(-c2noc(C(F)(F)F)n2)cc1)C(=O)C(C)OC (centres unmarked) [Compound 1.402, 2-methoxy-N-sec-butyl-N-[[4-(5-(trifluoromethyl)-1,2,4-oxadiazol-3-yl]phenyl]methyl]-propanamide]
≥ 80%: pest or weed control at 200 ppm [1] | pest or weed control at 200 ppm [2] | pest or weed control at 200 ppm (Phakopsora Pachyrhizi) | inhibition of growth at 20 ppm [3]

CON(Cc1ccc(-c2noc(C(F)(F)F)n2)cc1)C(=O)CC1CC1 [Compound 1.26, 2-cyclopropyl-N-methoxy-N-[[4-[5-(trifluoromethyl)-1,2,4-oxadiazol-3-yl]phenyl]methyl]-acetamide]
≥ 80%: pest or weed control at 200 ppm [1] | pest or weed control at 200 ppm [2] | pest or weed control at 200 ppm (Phakopsora Pachyrhizi) | inhibition of growth at 20 ppm [3]

CON(Cc1ccc(-c2noc(C(F)(F)F)n2)cc1)C(=O)Nc1ccccc1 [Compound 3.8, 1-methoxy-3-phenyl-1-[[4-[5-(trifluoromethyl)-1,2,4-oxadiazol-3-yl]phenyl]methyl]urea]
≥ 80%: pest or weed control at 200 ppm [1] | pest or weed control at 200 ppm [2] | pest or weed control at 200 ppm (Phakopsora Pachyrhizi) | inhibition of growth at 20 ppm [3]

C=C(C)C(=O)N(Cc1ccc(-c2noc(C(F)(F)F)n2)cc1)OC [Compound 1.45, N-methoxy-2-methyl-N-[[4-[5-(trifluoromethyl)-1,2,4-oxadiazol-3-yl]phenyl]methyl]-prop-2-enamide]
≥ 80%: pest or weed control at 200 ppm [1] | pest or weed control at 200 ppm [2] | pest or weed control at 200 ppm (Phakopsora Pachyrhizi) | inhibition of growth at 20 ppm [3]

CCCCCC(=O)N(Cc1ccc(-c2noc(C(F)(F)F)n2)cc1)OC [Compound 1.20, N-methoxy-N-[[4-[5-(trifluoromethyl)-1,2,4-oxadiazol-3-yl]phenyl]methyl]-hexanamide]
≥ 80%: pest or weed control at 200 ppm [1] | pest or weed control at 200 ppm [2] | pest or weed control at 200 ppm (Phakopsora Pachyrhizi) | inhibition of growth at 20 ppm [3]

CCCN(Cc1ccc(-c2noc(C(F)(F)F)n2)cc1)C(=O)C1(C)COC1 [Compound 1.660, 3-methyl-N-propyl-N-[[4-[5-(trifluoromethyl)-1,2,4-oxadiazol-3-yl]phenyl]methyl]-oxetane-3-carboxamide]
≥ 80%: pest or weed control at 200 ppm [1] | pest or weed control at 200 ppm [2] | pest or weed control at 200 ppm (Phakopsora Pachyrhizi) | inhibition of growth at 20 ppm [3]

C=CCN(Cc1ccc(-c2noc(C(F)(F)F)n2)cc1)C(=O)CCCOC [Compound 1.487, N-allyl-4-methoxy-N-[[4-[5-(trifluoromethyl)-1,2,4-oxadiazol-3-yl]phenyl]methyl]-butanamide]
≥ 80%: pest or weed control at 200 ppm [1] | pest or weed control at 200 ppm [2] | pest or weed control at 200 ppm (Phakopsora Pachyrhizi) | inhibition of growth at 20 ppm [3]

COCC(=O)N(CCO)Cc1ccc(-c2noc(C(F)(F)F)n2)cc1 [Compound 1.610, N-(2-hydroxyethyl)-2-methoxy-N-[[4-[5-(trifluoromethyl)-1,2,4-oxadiazol-3-yl]phenyl]methyl]-acetamide]
≥ 80%: pest or weed control at 200 ppm [1] | pest or weed control at 200 ppm [2] | pest or weed control at 200 ppm (Phakopsora Pachyrhizi) | inhibition of growth at 20 ppm [3]

N#CC1(C(=O)N(Cc2ccc(-c3noc(C(F)(F)F)n3)cc2)CC2CC2)CC1 [Compound 1.244, 1-cyano-N-(cyclopropylmethyl)-N-[[4-[5-(trifluoromethyl)-1,2,4-oxadiazol-3-yl]phenyl]methyl]-cyclopropane-carboxamide]
≥ 80%: pest or weed control at 200 ppm [1] | pest or weed control at 200 ppm [2] | pest or weed control at 200 ppm (Phakopsora Pachyrhizi) | inhibition of growth at 20 ppm [3]

CON(Cc1ccc(-c2noc(C(F)(F)F)n2)cc1)C(=O)NC(C)(C)C [Compound 3.19, 3-tert-butyl-1-methoxy-1-[[4-[5-(trifluoromethyl)-1,2,4-oxadiazol-3-yl]phenyl]methyl]urea]
≥ 80%: pest or weed control at 200 ppm [1] | pest or weed control at 200 ppm [2] | pest or weed control at 200 ppm (Phakopsora Pachyrhizi) | inhibition of growth at 20 ppm [3]

CCC(COC)C(=O)N(Cc1ccc(-c2noc(C(F)(F)F)n2)cc1)C1CC1 (centres unmarked) [Compound 1.134, N-cyclopropyl-2-(methoxymethyl)-N-[[4-[5-(trifluoromethyl)-1,2,4-oxadiazol-3-yl]phenyl]methyl]-butanamide]
≥ 80%: pest or weed control at 200 ppm [1] | pest or weed control at 200 ppm [2] | pest or weed control at 200 ppm (Phakopsora Pachyrhizi) | inhibition of growth at 20 ppm [3]

CCC(=O)N(Cc1ccc(-c2noc(C(F)(F)F)n2)c(F)c1)OC [Compound 1.580, N-[[3-fluoro-4-[5-(trifluoromethyl)-1,2,4-oxadiazol-3-yl]phenyl]methyl]-N-methoxy-propanamide]
≥ 80%: pest or weed control at 200 ppm [1] | pest or weed control at 200 ppm [2] | pest or weed control at 200 ppm (Phakopsora Pachyrhizi) | inhibition of growth at 20 ppm [3]

CNC(=O)N(Cc1ccc(-c2noc(C(F)(F)F)n2)c(F)c1)OC [Compound 3.44, 1-[[3-fluoro-4-[5-(trifluoromethyl)-1,2,4-oxadiazol-3-yl]phenyl]methyl]-1-methoxy-3-methyl-urea]
≥ 80%: pest or weed control at 200 ppm [1] | pest or weed control at 200 ppm [2] | pest or weed control at 200 ppm (Phakopsora Pachyrhizi) | inhibition of growth at 20 ppm [3]

CCON(Cc1ccc(-c2noc(C(F)(F)F)n2)cc1)C(=O)C(C)C [Compound 1.614, N-ethoxy-2-methyl-N-[[4-[5-(trifluoromethyl)-1,2,4-oxadiazol-3-yl]phenyl]methyl]-propanamide]
≥ 80%: pest or weed control at 200 ppm [1] | pest or weed control at 200 ppm [2] | pest or weed control at 200 ppm (Phakopsora Pachyrhizi) | inhibition of growth at 20 ppm [3]

CCON(Cc1ccc(-c2noc(C(F)(F)F)n2)cc1)C(C)=O [Compound 1.631, N-ethoxy-N-[[4-[5-(trifluoromethyl)-1,2,4-oxadiazol-3-yl]phenyl]methyl]-acetamide]
≥ 80%: pest or weed control at 200 ppm [1] | pest or weed control at 200 ppm [2] | pest or weed control at 200 ppm (Phakopsora Pachyrhizi) | inhibition of growth at 20 ppm [3]

CCC(=O)N(C)Cc1ccc(-c2noc(C(F)(F)F)n2)cc1 [Compound 1.517, N-methyl-N-[[4-[5-(trifluoromethyl)-1,2,4-oxadiazol-3-yl]phenyl]methyl]-propanamide]
≥ 80%: pest or weed control at 200 ppm [1] | pest or weed control at 200 ppm [2] | pest or weed control at 200 ppm (Phakopsora Pachyrhizi) | inhibition of growth at 20 ppm [3]

CCC(C)N(Cc1ccc(-c2noc(C(F)(F)F)n2)cc1)C(=O)C1CCCO1 (centres unmarked) [Compound 1.398, N-sec-butyl-N-[[4-[5-(trifluoromethyl)-1,2,4-oxadiazol-3-yl]phenyl]methyl]-tetrahydrofuran-2-carboxamide]
≥ 80%: pest or weed control at 200 ppm [1] | pest or weed control at 200 ppm [2] | pest or weed control at 200 ppm (Phakopsora Pachyrhizi) | inhibition of growth at 20 ppm [3]

CONC(=O)N(Cc1ccc(-c2noc(C(F)(F)F)n2)cc1)OC [Compound 3.22, 1,3-dimethoxy-1-[[4-[5-(trifluoromethyl)-1,2,4-oxadiazol-3-yl]phenyl]methyl]urea]
≥ 80%: pest or weed control at 200 ppm [1] | pest or weed control at 200 ppm [2] | pest or weed control at 200 ppm (Phakopsora Pachyrhizi) | inhibition of growth at 20 ppm [3]
